# Assay results from paper doi:10.1101/2020.06.11.145995v1 (biorxiv, 2020).
# Like-named read-outs stand apart in the source and are kept apart here.
# Legend:
# Experiment in all cases: biochemical
# [1] = target: PRKG2 (Homo sapiens, UniProt Q13237)
# [2] = target: PRKG1 (Homo sapiens, UniProt Q13976)
# [3] = target: VRK2 (Homo sapiens, UniProt Q86Y07)
# [4] = target: PIK3C2B (Homo sapiens, UniProt O00750)
# [5] = target: RSK1 (Homo sapiens, UniProt Q15418)
# [6] = target: NEK11 (Homo sapiens, UniProt Q8NG66)
# [7] = target: TBK1 (Homo sapiens, UniProt Q9UHD2)
# [8] = target: S6K1 (Homo sapiens, UniProt P23443)
# S6K1, sequence (P23443 whole entry): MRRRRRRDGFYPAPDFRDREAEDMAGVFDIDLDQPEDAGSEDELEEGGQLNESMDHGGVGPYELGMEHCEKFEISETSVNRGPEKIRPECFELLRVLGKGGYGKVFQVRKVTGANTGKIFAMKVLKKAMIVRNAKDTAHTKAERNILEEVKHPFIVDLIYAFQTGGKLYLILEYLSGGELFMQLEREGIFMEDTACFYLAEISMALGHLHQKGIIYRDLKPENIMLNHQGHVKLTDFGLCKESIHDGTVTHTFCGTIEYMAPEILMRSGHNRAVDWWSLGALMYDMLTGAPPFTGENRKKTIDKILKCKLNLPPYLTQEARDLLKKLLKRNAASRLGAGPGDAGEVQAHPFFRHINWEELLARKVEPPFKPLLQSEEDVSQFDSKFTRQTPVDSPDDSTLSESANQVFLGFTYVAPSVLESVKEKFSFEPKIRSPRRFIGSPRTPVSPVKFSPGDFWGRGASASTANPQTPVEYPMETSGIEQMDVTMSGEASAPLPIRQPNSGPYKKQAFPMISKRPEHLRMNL
# [9] = target: YANK3 (Homo sapiens, UniProt Q86UX6)
# [10] = target: TLK1 (Homo sapiens, UniProt Q9UKI8)
# [11] = target: TEC (Homo sapiens, UniProt P42680)
# [12] = target: PRKCQ (Homo sapiens, UniProt Q04759)
# [13] = target: PIK3CA(M1043I (Homo sapiens, UniProt P42336, M1043I))
# [14] = target: PAK4 (Homo sapiens, UniProt O96013)
# [15] = target: ULK2 (Homo sapiens, UniProt Q8IYT8)
# [16] = target: PRKD3 (Homo sapiens, UniProt O94806)
# PRKD3, sequence (O94806 whole entry): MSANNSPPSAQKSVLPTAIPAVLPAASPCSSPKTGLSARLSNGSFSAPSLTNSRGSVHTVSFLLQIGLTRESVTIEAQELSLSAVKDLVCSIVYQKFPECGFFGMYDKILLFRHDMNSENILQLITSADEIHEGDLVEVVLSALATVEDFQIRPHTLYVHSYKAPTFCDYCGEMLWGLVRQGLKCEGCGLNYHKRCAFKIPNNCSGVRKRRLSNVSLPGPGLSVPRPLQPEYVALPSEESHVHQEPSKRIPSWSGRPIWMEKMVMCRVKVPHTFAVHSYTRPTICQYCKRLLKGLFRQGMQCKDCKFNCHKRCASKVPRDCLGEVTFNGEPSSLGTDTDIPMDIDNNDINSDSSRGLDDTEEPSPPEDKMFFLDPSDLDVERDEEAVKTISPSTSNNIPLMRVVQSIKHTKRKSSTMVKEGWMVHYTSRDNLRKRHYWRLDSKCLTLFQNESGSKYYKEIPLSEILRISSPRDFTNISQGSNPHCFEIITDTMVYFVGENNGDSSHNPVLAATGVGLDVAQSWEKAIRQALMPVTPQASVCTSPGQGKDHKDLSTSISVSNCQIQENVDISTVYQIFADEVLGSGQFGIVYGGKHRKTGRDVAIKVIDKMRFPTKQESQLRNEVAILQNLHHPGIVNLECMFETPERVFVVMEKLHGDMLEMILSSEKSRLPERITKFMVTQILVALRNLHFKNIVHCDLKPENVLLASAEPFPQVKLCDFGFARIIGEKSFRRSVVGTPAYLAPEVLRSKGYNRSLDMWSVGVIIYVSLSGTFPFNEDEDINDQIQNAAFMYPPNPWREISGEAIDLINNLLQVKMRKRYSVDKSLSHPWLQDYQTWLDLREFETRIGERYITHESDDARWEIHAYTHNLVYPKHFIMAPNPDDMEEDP
# [17] = target: RSK2 (Homo sapiens, UniProt P51812)
# RSK2, sequence (P51812 whole entry): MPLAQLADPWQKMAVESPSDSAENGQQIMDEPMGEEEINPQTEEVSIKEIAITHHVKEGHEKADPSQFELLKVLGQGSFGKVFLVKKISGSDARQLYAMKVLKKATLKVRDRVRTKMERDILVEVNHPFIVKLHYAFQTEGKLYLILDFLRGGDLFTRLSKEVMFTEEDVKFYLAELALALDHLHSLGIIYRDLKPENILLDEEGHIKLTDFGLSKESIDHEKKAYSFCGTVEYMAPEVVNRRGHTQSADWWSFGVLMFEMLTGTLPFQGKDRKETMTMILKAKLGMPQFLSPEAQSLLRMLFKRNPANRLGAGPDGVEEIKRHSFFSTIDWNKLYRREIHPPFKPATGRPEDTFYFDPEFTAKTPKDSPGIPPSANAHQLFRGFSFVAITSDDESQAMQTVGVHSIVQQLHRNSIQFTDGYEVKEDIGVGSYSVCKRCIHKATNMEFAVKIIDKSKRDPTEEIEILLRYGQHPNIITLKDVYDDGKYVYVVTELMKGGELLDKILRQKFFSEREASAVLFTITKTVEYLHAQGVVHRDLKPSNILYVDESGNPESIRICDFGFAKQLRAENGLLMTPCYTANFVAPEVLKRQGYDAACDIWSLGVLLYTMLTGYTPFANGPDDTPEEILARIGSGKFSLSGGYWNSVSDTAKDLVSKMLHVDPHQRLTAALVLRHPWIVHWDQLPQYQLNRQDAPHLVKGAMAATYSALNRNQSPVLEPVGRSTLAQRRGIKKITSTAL
# [18] = target: PIK3CA(H1047L) (Homo sapiens, UniProt P42336, H1047L)
# [19] = target: AAK1 (Homo sapiens, UniProt Q2M2I8)
# [20] = target: TTK (Homo sapiens, UniProt P33981)
# [21] = target: PRKD2 (Homo sapiens, UniProt Q9BZL6)
# [22] = target: YANK2 (Homo sapiens, UniProt Q9NY57)
# [23] = target: NDR1 (Homo sapiens, UniProt Q15208)
# NDR1, sequence (Q15208 whole entry): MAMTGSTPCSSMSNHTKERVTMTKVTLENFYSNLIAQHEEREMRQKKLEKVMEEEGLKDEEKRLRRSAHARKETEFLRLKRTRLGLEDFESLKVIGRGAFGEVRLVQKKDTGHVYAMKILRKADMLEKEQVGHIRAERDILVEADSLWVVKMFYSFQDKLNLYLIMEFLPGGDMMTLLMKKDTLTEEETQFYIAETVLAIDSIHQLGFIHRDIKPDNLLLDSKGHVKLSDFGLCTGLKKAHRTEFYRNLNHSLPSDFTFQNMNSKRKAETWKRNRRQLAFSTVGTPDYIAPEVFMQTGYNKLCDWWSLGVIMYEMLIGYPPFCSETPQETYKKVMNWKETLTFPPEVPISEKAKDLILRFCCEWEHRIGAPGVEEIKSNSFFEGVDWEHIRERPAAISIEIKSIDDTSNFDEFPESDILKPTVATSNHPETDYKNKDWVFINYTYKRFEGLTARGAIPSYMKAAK
# [24] = target: SNARK (Homo sapiens, UniProt Q9H093)
# [25] = target: PAK7 (Homo sapiens, UniProt Q9P286)
# PAK7, sequence (Q9P286 whole entry): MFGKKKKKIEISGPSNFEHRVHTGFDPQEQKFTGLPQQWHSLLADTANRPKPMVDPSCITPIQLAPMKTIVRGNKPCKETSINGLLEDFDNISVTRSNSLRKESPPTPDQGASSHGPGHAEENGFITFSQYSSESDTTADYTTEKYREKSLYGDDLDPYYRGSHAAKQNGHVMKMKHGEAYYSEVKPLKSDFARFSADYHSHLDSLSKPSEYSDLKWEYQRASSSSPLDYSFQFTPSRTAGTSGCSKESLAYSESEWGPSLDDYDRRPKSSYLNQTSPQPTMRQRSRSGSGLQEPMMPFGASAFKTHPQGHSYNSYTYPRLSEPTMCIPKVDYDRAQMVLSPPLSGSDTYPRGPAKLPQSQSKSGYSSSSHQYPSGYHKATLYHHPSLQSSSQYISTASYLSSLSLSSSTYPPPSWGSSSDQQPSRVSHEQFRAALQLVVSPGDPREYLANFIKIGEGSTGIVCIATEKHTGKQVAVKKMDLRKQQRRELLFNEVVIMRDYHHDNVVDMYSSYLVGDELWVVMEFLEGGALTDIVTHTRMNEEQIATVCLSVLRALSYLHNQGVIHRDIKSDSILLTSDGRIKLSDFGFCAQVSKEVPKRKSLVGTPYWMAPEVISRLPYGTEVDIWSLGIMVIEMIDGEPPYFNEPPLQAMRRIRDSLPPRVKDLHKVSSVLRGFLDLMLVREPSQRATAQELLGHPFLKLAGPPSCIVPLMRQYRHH
# [26] = target: NEK2 (Homo sapiens, UniProt P51955)
# [27] = target: STK35 (Homo sapiens, UniProt Q8TDR2)
# [28] = target: RIPK2 (Homo sapiens, UniProt O43353)
# [29] = target: TGFBR2 (Homo sapiens, UniProt P37173)
# [30] = read-out: CPT-1-70-1 (1μM) % control
# [31] = read-out: CPT-1-70-1 (1μM) % control, Kin.Dom.1-N-terminal
# [32] = read-out: HYJ-2-002-1 (1μM) % control
# [33] = read-out: HYJ-2-002-1 (1μM) % control, Kin.Dom.1-N-terminal
# RSK1, sequence (Q15418 whole entry): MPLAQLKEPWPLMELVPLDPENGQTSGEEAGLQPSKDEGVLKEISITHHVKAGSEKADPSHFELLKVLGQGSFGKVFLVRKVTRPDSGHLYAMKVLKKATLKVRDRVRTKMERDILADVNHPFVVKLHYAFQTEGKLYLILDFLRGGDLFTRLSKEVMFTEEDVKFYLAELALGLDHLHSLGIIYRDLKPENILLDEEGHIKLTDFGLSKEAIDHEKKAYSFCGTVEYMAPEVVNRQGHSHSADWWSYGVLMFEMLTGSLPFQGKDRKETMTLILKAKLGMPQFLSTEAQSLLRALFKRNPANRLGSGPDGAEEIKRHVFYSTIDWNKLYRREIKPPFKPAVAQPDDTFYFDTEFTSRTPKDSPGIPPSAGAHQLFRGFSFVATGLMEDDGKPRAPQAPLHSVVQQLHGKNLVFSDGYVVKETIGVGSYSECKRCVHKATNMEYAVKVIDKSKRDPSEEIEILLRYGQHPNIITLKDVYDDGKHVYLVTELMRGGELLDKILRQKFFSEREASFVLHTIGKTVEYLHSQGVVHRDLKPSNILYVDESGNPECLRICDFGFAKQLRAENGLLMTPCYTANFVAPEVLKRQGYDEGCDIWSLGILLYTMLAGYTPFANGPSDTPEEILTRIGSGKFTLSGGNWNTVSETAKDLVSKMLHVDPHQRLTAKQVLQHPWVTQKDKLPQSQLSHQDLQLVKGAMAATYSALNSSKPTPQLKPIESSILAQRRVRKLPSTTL
# PRKG2, sequence (Q13237 whole entry): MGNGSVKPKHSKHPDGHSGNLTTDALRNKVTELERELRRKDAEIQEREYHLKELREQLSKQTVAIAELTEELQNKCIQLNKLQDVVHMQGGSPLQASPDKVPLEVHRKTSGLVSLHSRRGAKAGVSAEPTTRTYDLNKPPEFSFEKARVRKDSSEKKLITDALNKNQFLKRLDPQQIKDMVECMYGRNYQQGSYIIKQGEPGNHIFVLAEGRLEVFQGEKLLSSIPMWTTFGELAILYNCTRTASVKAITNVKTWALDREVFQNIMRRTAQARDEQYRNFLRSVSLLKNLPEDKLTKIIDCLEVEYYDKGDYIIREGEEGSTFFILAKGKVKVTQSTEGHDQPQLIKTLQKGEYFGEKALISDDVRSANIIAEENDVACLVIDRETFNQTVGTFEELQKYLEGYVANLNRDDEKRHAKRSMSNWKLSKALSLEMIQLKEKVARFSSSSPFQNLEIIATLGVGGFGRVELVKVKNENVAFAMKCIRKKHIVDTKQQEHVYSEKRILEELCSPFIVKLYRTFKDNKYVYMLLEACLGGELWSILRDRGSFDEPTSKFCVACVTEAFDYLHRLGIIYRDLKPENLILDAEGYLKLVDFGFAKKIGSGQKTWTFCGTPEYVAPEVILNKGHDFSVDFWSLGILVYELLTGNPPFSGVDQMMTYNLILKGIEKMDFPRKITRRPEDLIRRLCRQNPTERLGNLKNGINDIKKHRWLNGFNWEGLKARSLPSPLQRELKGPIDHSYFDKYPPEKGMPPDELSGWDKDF
compound,measurement,setting,value
CN1CCN(c2ccc(Nc3nc(Oc4ccc(NC(=O)CCl)cc4)c4cc[nH]c4n3)cc2)CC1 [CPT1-70-1],remaining activity at 1 µM,[1]; [30],100%
same,remaining activity at 1 µM,[2]; [30],100%
same,remaining activity at 1 µM,[3]; [30],100%
same,remaining activity at 1 µM,[4]; [30],100%
same,remaining activity at 1 µM,[5]; [31],72%
same,remaining activity at 1 µM,"[5]; read-out: CPT-1-70-1 (1μM) % control, Kin.Dom.2-C-terminal",100%
same,remaining activity at 1 µM,[6]; [30],95%
same,remaining activity at 1 µM,[7]; [30],43%
same,remaining activity at 1 µM,[8]; [30],100%
same,remaining activity at 1 µM,[9]; [30],100%
same,remaining activity at 1 µM,[10]; [30],100%
same,remaining activity at 1 µM,[11]; [30],10%
same,remaining activity at 1 µM,[12]; [30],100%
same,remaining activity at 1 µM,[13]; [30],100%
same,remaining activity at 1 µM,[14]; [30],12%
same,remaining activity at 1 µM,[15]; [30],29%
same,remaining activity at 1 µM,[16]; [30],54%
same,remaining activity at 1 µM,[17]; [31],100%
same,remaining activity at 1 µM,[18]; [30],100%
same,remaining activity at 1 µM,[19]; [30],18%
same,remaining activity at 1 µM,[20]; [30],4.8%
same,remaining activity at 1 µM,[21]; [30],70%
same,remaining activity at 1 µM,[22]; [30],100%
same,remaining activity at 1 µM,[23]; [30],37%
same,remaining activity at 1 µM,[24]; [30],8.5%
same,remaining activity at 1 µM,[25]; [30],13%
same,remaining activity at 1 µM,[26]; [30],100%
same,remaining activity at 1 µM,[27]; [30],100%
same,remaining activity at 1 µM,[28]; [30],100%
same,remaining activity at 1 µM,[29]; [30],100%
CCN1CCN(Cc2ccc(NC(=O)c3ccc(C)c(CCc4cnc5[nH]ccc5c4OC)c3)cc2C(F)(F)F)CC1 [HYJ-2-002-1],remaining activity at 1 µM,[1]; [32],100%
same,remaining activity at 1 µM,[2]; [32],100%
same,remaining activity at 1 µM,[3]; [32],100%
same,remaining activity at 1 µM,[4]; [32],100%
same,remaining activity at 1 µM,[5]; [33],96%
same,remaining activity at 1 µM,"[5]; read-out: HYJ-2-002-1 (1μM) % control, Kin.Dom.2-C-terminal",61%
same,remaining activity at 1 µM,[6]; [32],37%
same,remaining activity at 1 µM,[7]; [32],100%
same,remaining activity at 1 µM,[8]; [32],55%
same,remaining activity at 1 µM,[9]; [32],100%
same,remaining activity at 1 µM,[10]; [32],74%
same,remaining activity at 1 µM,[11]; [32],3.8%
same,remaining activity at 1 µM,[12]; [32],82%
same,remaining activity at 1 µM,[13]; [32],100%
same,remaining activity at 1 µM,[14]; [32],99%
same,remaining activity at 1 µM,[15]; [32],88%
same,remaining activity at 1 µM,[16]; [32],67%
same,remaining activity at 1 µM,[17]; [33],100%
same,remaining activity at 1 µM,[18]; [32],100%
same,remaining activity at 1 µM,[19]; [32],100%
same,remaining activity at 1 µM,[20]; [32],64%
same,remaining activity at 1 µM,[21]; [32],42%
same,remaining activity at 1 µM,[22]; [32],100%
same,remaining activity at 1 µM,[23]; [32],100%
same,remaining activity at 1 µM,[24]; [32],100%
same,remaining activity at 1 µM,[25]; [32],92%
same,remaining activity at 1 µM,[26]; [32],95%
same,remaining activity at 1 µM,[27]; [32],91%
same,remaining activity at 1 µM,[28]; [32],5.3%
same,remaining activity at 1 µM,[29]; [32],41%
